Assay results from JP2011032172A, “酸化ストレス低減剤。” (Mitsubishi Gas Chemical Co Inc, priority 2009, dated 2011).

Columns and labels:
[1] = test system: hexanoyl-lysine (ヘキサノイルリジン(HEL)); assay: urinary hexanoyl-lysine (HEL) production rate in the same human trial (ELISA); format: in vivo; details: healthy adult men and women 45-65 years; PQQ disodium salt 20 mg hard capsule after breakfast daily, 3 months; urine from same two groups as Example 1; result in words (rate calculated in pmol/kg/hr)
8−OHdG = assay: urinary 8-OHdG production rate in placebo-controlled double-blind parallel-group human trial (ELISA); format: in vivo; details: healthy adult men and women 45-65 years; PQQ disodium salt 20 mg hard capsule after breakfast daily, 3 months; early-morning urine before and at 4, 8, 12 weeks; result in words (rate calculated in ng/kg/hr)

## O=C(O)c1cc(C(=O)O)c2c(n1)C(=O)C(=O)c1cc(C(=O)O)[nH]c1-2 [PQQ, ピロロキノリンキノン, 二ナトリウム塩]
[1]
  HEL production rate: 低下傾向
8−OHdG
  8−OHdG production rate: 低下傾向
